Measurements taken from PMC8429728, “TNK1 is a ubiquitin-binding and 14-3-3-regulated kinase that can be targeted to block tumor growth” (Nature Communications, 2021).
Like-named read-outs stand apart in the source and are kept apart here.

Experiments:
[1] = target: T1, TNK1 (Homo sapiens, UniProt Q13470); experiment: radiometric […]-ATP kinase assay with recombinant kinase at Km ATP ([…]); supported by NanoBRET target engagement in HEK293 cells (IC50 […]); type: biochemical
T1 sequence (Q13470 1-666): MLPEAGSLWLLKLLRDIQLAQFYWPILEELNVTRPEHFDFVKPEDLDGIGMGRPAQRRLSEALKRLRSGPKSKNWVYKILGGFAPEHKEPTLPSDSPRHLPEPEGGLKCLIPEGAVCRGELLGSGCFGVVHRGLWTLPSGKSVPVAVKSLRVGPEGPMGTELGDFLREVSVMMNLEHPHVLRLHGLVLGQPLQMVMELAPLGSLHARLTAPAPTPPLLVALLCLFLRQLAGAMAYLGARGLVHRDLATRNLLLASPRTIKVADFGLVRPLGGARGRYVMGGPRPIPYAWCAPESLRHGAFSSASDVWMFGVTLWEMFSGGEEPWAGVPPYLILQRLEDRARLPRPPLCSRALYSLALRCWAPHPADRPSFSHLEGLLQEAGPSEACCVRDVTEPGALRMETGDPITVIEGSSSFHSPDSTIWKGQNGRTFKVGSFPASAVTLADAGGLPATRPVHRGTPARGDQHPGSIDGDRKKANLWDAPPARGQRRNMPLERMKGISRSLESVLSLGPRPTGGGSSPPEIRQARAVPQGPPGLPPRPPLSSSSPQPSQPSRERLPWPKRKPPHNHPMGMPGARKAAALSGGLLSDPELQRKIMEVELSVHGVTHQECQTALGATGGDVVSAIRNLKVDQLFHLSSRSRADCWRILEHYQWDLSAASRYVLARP

[2] = target: T2, Aurora A (Homo sapiens, UniProt O14965); experiment: radiometric […]-ATP kinase assay with recombinant kinase at Km ATP ([…]); type: biochemical
T2 construct: gene AURKA
T2 sequence (O14965 1-403): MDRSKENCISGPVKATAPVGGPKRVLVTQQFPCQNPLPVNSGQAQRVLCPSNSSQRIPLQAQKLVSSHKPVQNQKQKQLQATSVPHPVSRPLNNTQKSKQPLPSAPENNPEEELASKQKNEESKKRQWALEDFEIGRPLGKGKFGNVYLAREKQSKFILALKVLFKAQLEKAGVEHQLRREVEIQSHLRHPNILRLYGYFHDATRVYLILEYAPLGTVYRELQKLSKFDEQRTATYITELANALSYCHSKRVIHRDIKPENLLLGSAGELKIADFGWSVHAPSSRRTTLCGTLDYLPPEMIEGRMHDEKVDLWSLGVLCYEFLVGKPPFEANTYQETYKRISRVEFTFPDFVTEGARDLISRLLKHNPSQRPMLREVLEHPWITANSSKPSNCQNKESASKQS

[3] = target: TESK1 (Homo sapiens, UniProt Q15569); experiment: biochemical; parameters: Reaction Biology 371-kinase panel at Km ATP, per cent enzyme activity relative to DMSO, single dose in duplicate; details: duplicate measurements, Km ATP; read-out: % Enzyme Activity (relative to DMSO controls) / TP-0005801 (0.3µM) / Data 1
Outline: (§1)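 Percent kinase activity relative to vehicle (DMSO) is reported for a 371-kinase in vitro panel at 300 nM compound; IC50 values derive from variable-slope sigmoidal fits with the lower plateau fixed at 0.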

[4] = target: BMPR2 (Homo sapiens, UniProt Q13873); experiment: biochemical; parameters: Reaction Biology 371-kinase panel at Km ATP, per cent enzyme activity relative to DMSO, single dose in duplicate; details: duplicate measurements, Km ATP
Sequence of BMPR2 (Q13873 whole entry): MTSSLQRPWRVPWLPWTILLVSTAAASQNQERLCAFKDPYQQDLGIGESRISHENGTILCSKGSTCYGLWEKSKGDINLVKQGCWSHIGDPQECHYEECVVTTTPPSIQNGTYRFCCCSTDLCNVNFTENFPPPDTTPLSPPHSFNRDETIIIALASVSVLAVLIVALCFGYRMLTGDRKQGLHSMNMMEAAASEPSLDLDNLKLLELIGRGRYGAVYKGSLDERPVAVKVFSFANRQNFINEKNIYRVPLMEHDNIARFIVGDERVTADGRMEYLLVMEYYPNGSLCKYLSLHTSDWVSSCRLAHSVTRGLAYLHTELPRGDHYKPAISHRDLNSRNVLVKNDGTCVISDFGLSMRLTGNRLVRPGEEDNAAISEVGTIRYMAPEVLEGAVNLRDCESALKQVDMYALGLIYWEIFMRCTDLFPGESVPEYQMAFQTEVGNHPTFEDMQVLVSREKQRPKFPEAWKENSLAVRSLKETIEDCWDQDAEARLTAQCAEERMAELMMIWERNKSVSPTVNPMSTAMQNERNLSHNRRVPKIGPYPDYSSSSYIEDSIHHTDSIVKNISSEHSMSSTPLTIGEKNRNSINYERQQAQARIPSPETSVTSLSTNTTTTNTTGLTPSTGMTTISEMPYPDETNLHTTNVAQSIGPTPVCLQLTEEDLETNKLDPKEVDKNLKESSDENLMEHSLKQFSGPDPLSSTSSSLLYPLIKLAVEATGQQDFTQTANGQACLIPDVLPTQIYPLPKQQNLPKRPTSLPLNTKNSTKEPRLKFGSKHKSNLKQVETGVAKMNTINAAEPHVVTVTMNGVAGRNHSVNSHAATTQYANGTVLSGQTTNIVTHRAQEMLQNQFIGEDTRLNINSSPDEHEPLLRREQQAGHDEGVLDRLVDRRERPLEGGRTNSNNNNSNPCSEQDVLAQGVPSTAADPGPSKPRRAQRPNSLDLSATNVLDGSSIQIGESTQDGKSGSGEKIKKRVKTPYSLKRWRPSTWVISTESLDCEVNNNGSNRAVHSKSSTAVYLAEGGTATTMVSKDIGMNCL
Outline: as §1

[5] = target: PLK1 (Homo sapiens, UniProt P53350); experiment: biochemical; parameters: Reaction Biology 371-kinase panel at Km ATP, per cent enzyme activity relative to DMSO, single dose in duplicate; details: duplicate measurements, Km ATP
Sequence of PLK1 (P53350 whole entry): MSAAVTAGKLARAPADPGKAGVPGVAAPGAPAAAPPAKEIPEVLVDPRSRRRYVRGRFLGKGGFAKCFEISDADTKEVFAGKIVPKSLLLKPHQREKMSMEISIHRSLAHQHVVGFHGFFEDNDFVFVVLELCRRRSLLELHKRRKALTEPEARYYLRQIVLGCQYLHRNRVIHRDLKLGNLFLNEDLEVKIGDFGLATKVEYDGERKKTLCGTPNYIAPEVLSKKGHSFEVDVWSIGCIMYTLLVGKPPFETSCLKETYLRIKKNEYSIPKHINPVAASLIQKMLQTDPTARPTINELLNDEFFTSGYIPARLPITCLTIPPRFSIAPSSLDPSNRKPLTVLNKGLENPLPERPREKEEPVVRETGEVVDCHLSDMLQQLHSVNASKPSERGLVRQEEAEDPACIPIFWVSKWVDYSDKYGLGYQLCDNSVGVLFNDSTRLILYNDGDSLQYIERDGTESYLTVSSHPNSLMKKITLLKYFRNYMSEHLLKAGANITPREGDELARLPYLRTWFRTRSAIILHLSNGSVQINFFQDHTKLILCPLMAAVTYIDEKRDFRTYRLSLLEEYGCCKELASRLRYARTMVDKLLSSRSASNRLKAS
Outline: as §1

[6] = target: AKT3 (Homo sapiens, UniProt Q9Y243); experiment: biochemical; parameters: Reaction Biology 371-kinase panel at Km ATP, per cent enzyme activity relative to DMSO, single dose in duplicate; details: duplicate measurements, Km ATP
Sequence of AKT3 (Q9Y243 whole entry): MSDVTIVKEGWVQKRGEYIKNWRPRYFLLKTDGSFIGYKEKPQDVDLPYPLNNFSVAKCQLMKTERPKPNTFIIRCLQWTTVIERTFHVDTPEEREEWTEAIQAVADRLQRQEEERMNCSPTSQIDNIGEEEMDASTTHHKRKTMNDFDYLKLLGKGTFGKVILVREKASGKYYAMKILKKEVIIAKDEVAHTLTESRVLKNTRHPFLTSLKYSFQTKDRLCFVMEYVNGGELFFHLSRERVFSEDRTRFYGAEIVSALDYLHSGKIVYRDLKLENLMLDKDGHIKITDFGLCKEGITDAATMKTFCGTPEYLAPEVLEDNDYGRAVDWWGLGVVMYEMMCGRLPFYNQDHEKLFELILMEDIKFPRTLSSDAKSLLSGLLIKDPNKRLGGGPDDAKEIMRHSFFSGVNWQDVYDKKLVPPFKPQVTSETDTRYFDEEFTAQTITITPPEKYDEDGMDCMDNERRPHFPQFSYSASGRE
Outline: as §1

[7] = target: PKG2/PRKG2 (Homo sapiens, UniProt Q13237); experiment: biochemical; parameters: Reaction Biology 371-kinase panel at Km ATP, per cent enzyme activity relative to DMSO, single dose in duplicate; details: duplicate measurements, Km ATP; read-out: % Enzyme Activity (relative to DMSO controls) / TP-0005801 (0.3µM) / Data 1
Outline: as §1

[8] = target: CTK/MATK (Homo sapiens, UniProt P42679); experiment: biochemical; parameters: Reaction Biology 371-kinase panel at Km ATP, per cent enzyme activity relative to DMSO, single dose in duplicate; details: duplicate measurements, Km ATP
Outline: as §1

[9] = target: FGFR1 (Homo sapiens, UniProt P11362); experiment: biochemical; parameters: Reaction Biology 371-kinase panel at Km ATP, per cent enzyme activity relative to DMSO, single dose in duplicate; details: duplicate measurements, Km ATP
Sequence of FGFR1 (P11362 whole entry): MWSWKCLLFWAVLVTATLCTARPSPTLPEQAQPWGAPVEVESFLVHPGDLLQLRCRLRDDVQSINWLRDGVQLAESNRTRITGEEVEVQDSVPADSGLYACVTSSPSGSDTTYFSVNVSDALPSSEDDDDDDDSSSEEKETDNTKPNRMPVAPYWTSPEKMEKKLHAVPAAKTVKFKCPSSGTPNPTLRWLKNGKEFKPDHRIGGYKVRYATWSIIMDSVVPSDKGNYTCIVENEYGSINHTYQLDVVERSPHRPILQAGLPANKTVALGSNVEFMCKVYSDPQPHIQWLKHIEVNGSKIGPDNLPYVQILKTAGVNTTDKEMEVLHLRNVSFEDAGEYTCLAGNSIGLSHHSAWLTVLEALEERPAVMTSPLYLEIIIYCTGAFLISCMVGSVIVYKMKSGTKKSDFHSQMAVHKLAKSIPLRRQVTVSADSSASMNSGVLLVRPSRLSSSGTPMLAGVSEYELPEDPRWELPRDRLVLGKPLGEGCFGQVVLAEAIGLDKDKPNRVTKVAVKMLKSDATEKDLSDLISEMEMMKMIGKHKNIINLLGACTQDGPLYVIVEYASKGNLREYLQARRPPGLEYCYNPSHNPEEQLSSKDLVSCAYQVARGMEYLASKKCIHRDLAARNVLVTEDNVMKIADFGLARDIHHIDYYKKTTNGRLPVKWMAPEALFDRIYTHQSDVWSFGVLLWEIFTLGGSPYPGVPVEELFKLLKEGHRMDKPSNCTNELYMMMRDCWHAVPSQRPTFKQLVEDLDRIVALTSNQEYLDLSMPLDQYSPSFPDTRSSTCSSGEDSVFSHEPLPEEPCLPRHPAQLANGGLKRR
Outline: as §1

[10] = target: JAK2 (Homo sapiens, UniProt O60674); experiment: biochemical; parameters: Reaction Biology 371-kinase panel at Km ATP, per cent enzyme activity relative to DMSO, single dose in duplicate; details: duplicate measurements, Km ATP
Sequence of JAK2 (O60674 whole entry): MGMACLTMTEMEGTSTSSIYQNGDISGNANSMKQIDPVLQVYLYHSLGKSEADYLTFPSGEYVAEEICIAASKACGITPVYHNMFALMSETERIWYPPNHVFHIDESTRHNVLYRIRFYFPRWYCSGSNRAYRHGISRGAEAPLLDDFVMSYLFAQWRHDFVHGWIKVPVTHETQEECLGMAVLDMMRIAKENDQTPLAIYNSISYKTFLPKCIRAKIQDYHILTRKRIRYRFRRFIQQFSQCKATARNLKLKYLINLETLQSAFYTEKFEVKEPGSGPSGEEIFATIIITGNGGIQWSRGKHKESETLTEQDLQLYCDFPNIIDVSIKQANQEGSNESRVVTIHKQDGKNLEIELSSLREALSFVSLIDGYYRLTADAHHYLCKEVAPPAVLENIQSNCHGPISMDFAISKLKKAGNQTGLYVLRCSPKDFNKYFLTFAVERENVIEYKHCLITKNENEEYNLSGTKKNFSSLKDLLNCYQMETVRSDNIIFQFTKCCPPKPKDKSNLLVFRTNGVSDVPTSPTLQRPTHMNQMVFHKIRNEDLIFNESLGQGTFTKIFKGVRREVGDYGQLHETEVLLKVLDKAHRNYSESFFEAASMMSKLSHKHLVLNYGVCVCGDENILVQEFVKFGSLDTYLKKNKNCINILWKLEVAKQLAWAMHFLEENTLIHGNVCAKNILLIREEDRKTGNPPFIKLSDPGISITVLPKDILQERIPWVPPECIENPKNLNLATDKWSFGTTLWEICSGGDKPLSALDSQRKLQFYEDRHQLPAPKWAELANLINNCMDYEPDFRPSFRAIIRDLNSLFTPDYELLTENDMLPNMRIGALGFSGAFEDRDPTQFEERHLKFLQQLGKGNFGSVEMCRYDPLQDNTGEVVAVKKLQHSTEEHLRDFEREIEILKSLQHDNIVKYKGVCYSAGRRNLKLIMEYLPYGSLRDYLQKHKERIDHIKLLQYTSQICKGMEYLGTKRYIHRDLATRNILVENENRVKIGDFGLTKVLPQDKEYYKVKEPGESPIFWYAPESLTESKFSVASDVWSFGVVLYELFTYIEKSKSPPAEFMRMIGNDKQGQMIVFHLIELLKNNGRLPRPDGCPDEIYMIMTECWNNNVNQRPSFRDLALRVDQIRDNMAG
Outline: as §1

[11] = target: DRAK1/STK17A (Homo sapiens, UniProt Q9UEE5); experiment: biochemical; parameters: Reaction Biology 371-kinase panel at Km ATP, per cent enzyme activity relative to DMSO, single dose in duplicate; details: duplicate measurements, Km ATP
Sequence of DRAK1/STK17A (Q9UEE5 whole entry): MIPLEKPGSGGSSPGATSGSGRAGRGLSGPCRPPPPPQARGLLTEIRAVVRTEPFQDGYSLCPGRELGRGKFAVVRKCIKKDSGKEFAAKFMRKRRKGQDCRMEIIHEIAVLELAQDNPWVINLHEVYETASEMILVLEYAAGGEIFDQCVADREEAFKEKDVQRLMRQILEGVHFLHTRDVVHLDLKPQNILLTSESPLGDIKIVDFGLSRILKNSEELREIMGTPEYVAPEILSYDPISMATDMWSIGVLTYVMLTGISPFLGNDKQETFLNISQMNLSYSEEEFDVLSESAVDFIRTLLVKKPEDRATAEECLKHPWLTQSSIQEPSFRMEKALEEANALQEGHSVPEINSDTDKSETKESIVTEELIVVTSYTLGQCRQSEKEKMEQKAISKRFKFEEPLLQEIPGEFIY
Outline: as §1

[12] = target: T3, CK1g1 (Homo sapiens, UniProt Q9HCP0); experiment: biochemical; parameters: Reaction Biology 371-kinase panel at Km ATP, per cent enzyme activity relative to DMSO, single dose in duplicate; details: duplicate measurements, Km ATP
T3 construct: gene CSNK1G1
Outline: as §1

[13] = target: VRK1 (Homo sapiens, UniProt Q99986); experiment: biochemical; parameters: Reaction Biology 371-kinase panel at Km ATP, per cent enzyme activity relative to DMSO, single dose in duplicate; details: duplicate measurements, Km ATP
Sequence of VRK1 (Q99986 whole entry): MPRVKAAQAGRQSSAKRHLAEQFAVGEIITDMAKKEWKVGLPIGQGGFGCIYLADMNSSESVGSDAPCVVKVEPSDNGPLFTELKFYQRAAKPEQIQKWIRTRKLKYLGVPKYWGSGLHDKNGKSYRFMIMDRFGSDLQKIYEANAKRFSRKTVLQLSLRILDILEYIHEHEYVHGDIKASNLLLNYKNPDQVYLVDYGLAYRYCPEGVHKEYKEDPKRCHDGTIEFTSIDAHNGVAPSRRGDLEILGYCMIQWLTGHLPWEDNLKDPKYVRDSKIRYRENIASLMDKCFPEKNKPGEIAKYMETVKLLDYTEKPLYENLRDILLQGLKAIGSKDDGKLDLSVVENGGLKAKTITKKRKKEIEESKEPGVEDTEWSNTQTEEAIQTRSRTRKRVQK
Outline: as §1

[14] = read-out: % Enzyme Activity (relative to DMSO controls) / TP-0005801 (0.3µM) / Data 1
[15] = read-out: % Enzyme Activity (relative to DMSO controls) / TP-0005801 (0.3µM) / Data 2

IC50 [1]: 0.0014 µM
IC50 [2]: 5.38 µM
remaining activity at 0.3 µM [3]: 102%
remaining activity at 0.3 µM [4, 14]: 89.7%
remaining activity at 0.3 µM [4, 15]: 89.2%
remaining activity at 0.3 µM [5, 14]: 88.7%
remaining activity at 0.3 µM [5, 15]: 87.8%
remaining activity at 0.3 µM [6, 14]: 105%
remaining activity at 0.3 µM [6, 15]: 98.7%
remaining activity at 0.3 µM [7]: 111%
remaining activity at 0.3 µM [8, 14]: 108%
remaining activity at 0.3 µM [8, 15]: 106%
remaining activity at 0.3 µM [9, 14]: 83.9%
remaining activity at 0.3 µM [9, 15]: 83.3%
remaining activity at 0.3 µM [10, 14]: 82.8%
remaining activity at 0.3 µM [10, 15]: 77.7%
remaining activity at 0.3 µM [11, 14]: 92%
remaining activity at 0.3 µM [11, 15]: 88.6%
remaining activity at 0.3 µM [12, 14]: 88.5%
remaining activity at 0.3 µM [12, 15]: 87.8%
remaining activity at 0.3 µM [13, 14]: 92.2%
remaining activity at 0.3 µM [13, 15]: 91.6%
SMILES: COc1cc(N2CCN(C)CC2)c(C)cc1Nc1ncc(Br)c(Nc2cccnc2N(C)C)n1 [TP-5801]
